Measured values published in US20150344427A1 (EPIZYME, INC., priority 2012, published 2015).

Key:
[1] = system: H3K27 trimethylation in WSU-DLCL2 cells; assay: WSU-DLCL2 Methylation Assay (H3K27me3 ELISA); format: cell-based; settings: Homo sapiens, WSUDLCL2, 96 hours incubation, H3K27me3 normalised to total Histone H3
Text: WSU-DLCL2 suspension cells were purchased from DSMZ (German Collection of Microorganisms and Cell Cultures, Braunschweig, Germany). RPMI/Glutamax Medium, Penicillin-Streptomycin, Heat Inactivated Fetal Bovine Serum, and D-PBS were purchased from Life Technologies, Grand Island, N.Y., USA. Extraction Buffer and Neutralization Buffer (5×) were purchased from Active Motif, Carlsbad, Calif., USA. Rabbit anti-Histone H3 antibody was purchased from Abcam, Cambridge, Mass., USA. Rabbit anti-H3K27me3 and HRP-conjugated anti-rabbit-IgG were purchased from Cell Signaling Technology, Danvers, Mass., USA. TMB “Super Sensitive” substrate was sourced from BioFX Laboratories, Owings Mills, Md., USA. IgG-free Bovine Serum Albumin was purchased from Jackson ImmunoResearch, West Grove, Pa., USA. PBS with Tween (10×PBST) was purchased from KPL, Gaithersburg, Md., USA. Sulfuric Acid was purchased from Ricca Chemical, Arlington, Tex., USA. Immulon ELISA plates were purchased from Thermo, Rochester, N.Y., USA. V-bottom cell culture plates were purchased from Corning Inc., Corning, N.Y., USA. V-bottom polypropylene plates were purchased from Greiner Bio-One, Monroe, N.C., USA.
(§1) WSU-DLCL2 suspension cells were maintained in growth medium (RPMI 1640 supplemented with 10% v/v heat inactivated fetal bovine serum and 100 units/mL penicillin-streptomycin) and cultured at 37° C. under 5% CO2 Under assay conditions, cells were incubated in Assay Medium (RPMI 1640 supplemented with 20% v/v heat inactivated fetal bovine serum and 100 units/mL penicillin-streptomycin) at 37° C. under 5% CO2 on a plate shaker.
WSU-DLCL2 cells were seeded in assay medium at a concentration of 50,000 cells per mL to a 96-well V-bottom cell culture plate with 200 μL per well. Compound (1 μL) from 96 well source plates was added directly to V-bottom cell plate. Plates were incubated on a titer-plate shaker at 37° C., 5% CO2 for 96 hours. After four days of incubation, plates were spun at 241×g for five minutes and medium was aspirated gently from each well of cell plate without disturbing cell pellet. Pellet was resuspended in 200 μL DPBS and plates were spun again at 241×g for five minutes. The supernatant was aspirated and cold (4° C.) Extraction buffer (100 μL) was added per well. Plates were incubated at 4° C. on orbital shaker for two hours. Plates were spun at 3427×g×10 minutes. Supernatant (80 μL per well) was transferred to its respective well in 96 well V-bottom polypropylene plate. Neutralization Buffer 5× (20 μL per well) was added to V-bottom polypropylene plate containing supernatant. V-bottom polypropylene plates containing crude histone preparation (CHP) were incubated on orbital shaker x five minutes. Crude Histone Preparations were added (2 μL per well) to each respective well into duplicate 96 well ELISA plates containing 100 μL Coating Buffer (1×PBS+BSA 0.05% w/v). Plates were sealed and incubated overnight at 4° C. The following day, plates were washed three times with 300 μL per well 1×PBST. Wells were blocked for two hours with 300 μL per well ELISA Diluent ((PBS (1×) BSA (2% w/v) and Tween20 (0.05% v/v)). Plates were washed three times with 1×PBST. For the Histone H3 detection plate, 100 μL per well were added of anti-Histone-H3 antibody (Abcam, ab1791) diluted 1:10,000 in ELISA Diluent. For H3K27 trimethylation detection plate, 100 μL per well were added of anti-H3K27me3 diluted 1:2000 in ELISA diluent. Plates were incubated for 90 minutes at room temperature. Plates were washed three times with 300 μL 1×PBST per well. For Histone H3 detection, 100 μL of HRP-conjugated anti-rabbit IgG antibody diluted to 1:6000 in ELISA diluent was added per well. For H3K27me3 detection, 100 μL of HRP conjugated anti-rabbit IgG antibody diluted to 1:4000 in ELISA diluent was added per well. Plates were incubated at room temperature for 90 minutes. Plates were washed four times with 1×PBST 300 μL per well. TMB substrate 100 μL was added per well. […]

[2] = system: WSU-DLCL2 cells; assay: Cell Proliferation Analysis, WSU-DLCL2; format: cell-based; settings: Homo sapiens, WSUDLCL2, 144 h, 6 days, Cell Titer Glo
Text: WSU-DLCL2 suspension cells were purchased from DSMZ (German Collection of Microorganisms and Cell Cultures, Braunschweig, Germany). RPMI/Glutamax Medium, Penicillin-Streptomycin, Heat Inactivated Fetal Bovine Serum were purchased from Life Technologies, Grand Island, N.Y., USA. V-bottom polypropylene 384-well plates were purchased from Greiner Bio-One, Monroe, N.C., USA. Cell culture 384-well white opaque plates were purchased from Perkin Elmer, Waltham, Mass., USA. Cell-Titer Glo® was purchased from Promega Corporation, Madison, Wis., USA. SpectraMax M5 plate reader was purchased from Molecular Devices LLC, Sunnyvale, Calif., USA.
as §1, with “and” for “and 100 units/mL penicillin-streptomycin) and”, “CO2.” for “CO2”, “CO2.” for “CO2 on a plate shaker.”
For the assessment of the effect of compounds on the proliferation of the WSU-DLCL2 cell line, exponentially growing cells were plated in 384-well white opaque plates at a density of 1250 cell/ml in a final volume of 50 μl of assay medium. A compound source plate was prepared by performing triplicate nine-point 3-fold serial dilutions in DMSO, beginning at 10 mM (final top concentration of compound in the assay was 20 μM and the DMSO was 0.2%). A 100 nL aliquot from the compound stock plate was added to its respective well in the cell plate. […] After addition of compounds, assay plates were incubated for 6 days at 37° C., 5% CO2, relative humidity >90% for 6 days. Cell viability was measured by quantization of ATP present in the cell cultures, adding 35 μl of Cell Titer Glo® reagent to the cell plates. Luminescence was read in the SpectraMax M5. The concentration inhibiting cell viability by 50% was determined using a 4-parametric fit of the normalized dose response curves.

[3] = biological target: T1, wild-type EZH2 (PRC2 enzyme) (Homo sapiens, UniProt Q15910); assay: PRC2 enzyme assay on peptide substrate, wild-type EZH2; format: biochemical; settings: wild-type PRC2 enzyme 4 nM, H3K27me0 peptide, 3H-SAM Flashplate; read-out: WT EZH2 IC50
T1 construct: made in house; host or cells: Spodoptera frugiperda (sf9) cells, baculovirus
Text: (§2) General Materials. S-adenosylmethionine (SAM), S-adenosylhomocyteine (SAH), bicine, KCl, Tween20, dimethylsulfoxide (DMSO) and bovine skin gelatin (BSG) were purchased from Sigma-Aldrich at the highest level of purity possible. Dithiothreitol (DTT) was purchased from EMD. ^3H-SAM was purchased from American Radiolabeled Chemicals with a specific activity of 80 Ci/mmol. 384-well streptavidin Flashplates were purchased from PerkinElmer.
(§3) Peptides representative of human histone H3 residues 21-44 containing either an unmodified lysine 27 (H3K27me0) or dimethylated lysine 27 (H3K27me2) were synthesized with a C-terminal G(K-biotin) linker-affinity tag motif and a C-terminal amide cap by 21st Century Biochemicals. […] The sequences are listed below.
(§4) Human PRC2 enzymes were purified as 4-component enzyme complexes co-expressed in Spodoptera frugiperda (sf9) cells using a baculovirus expression system. […] The EED subunit contained an N-terminal FLAG tag that was used to purify the entire 4-component complex from sf9 cell lysates.
(§5) The assays were all performed in a buffer consisting of 20 mM bicine (pH=7.6), 0.5 mM DTT, 0.005% BSG and 0.002% Tween20, prepared on the day of use. Compounds in 100% DMSO (1 μL) were spotted into polypropylene 384-well V-bottom plates (Greiner) using a Platemate 2×3 outfitted with a 384-channel pipet head (Thermo). DMSO (1 μL) was added to columns 11, 12, 23, 24, rows A-H for the maximum signal control, and SAH, a known product and inhibitor of PRC2 (1 μL) was added to columns 11,12, 23, 24, rows I-P for the minimum signal control. A cocktail (40 μL) containing the wild-type PRC2 enzyme and H3K27me0 peptide or any of the Y641 mutant enzymes and H3K27me2 peptide was added by Multidrop Combi (Thermo). The compounds were allowed to incubate with PRC2 for 30 min at 25° C., then a cocktail (10 μL) containing a mixture of non-radioactive and ^3H-SAM was added to initiate the reaction (final volume=51 μL). In all cases, the final concentrations were as follows: wild-type or mutant PRC2 enzyme was 4 nM, SAH in the minimum signal control wells was 1 mM and the DMSO concentration was 1%. The assays were stopped by the addition of non-radioactive SAM (10 μL) to a final concentration of 600 μM, which dilutes the ^3H-SAM to a level where its incorporation into the peptide substrate is no longer detectable. 50 μL of the reaction in the 384-well polypropylene plate was then transferred to a 384-well Flashplate and the biotinylated peptides were allowed to bind to the streptavidin surface for at least 1 h before being washed three times with 0.1% Tween20 in a Biotek ELx405 plate washer. The plates were then read in a PerkinElmer TopCount platereader to measure the quantity of ^3H-labeled peptide bound to the Flashplate surface, measured as disintegrations per minute (dpm) or alternatively, referred to as counts per minute (cpm).
(§6) Where dpm=disintegrations per minute, cmpd=signal in assay well, and min and max are the respective minimum and maximum signal controls.
(§7) Where top and bottom are the normally allowed to float, but may be fixed at 100 or 0 respectively in a 3-parameter fit. The Hill Coefficient normally allowed to float but may also be fixed at 1 in a 3-parameter fit. Y is the % inhibition and X is the compound concentration.

[4] = biological target: T2, EZH2 Y641F mutant (PRC2 enzyme) (Homo sapiens, UniProt Q15910, Y641F); assay: PRC2 enzyme assay on peptide substrate, EZH2 Y641F mutant; format: biochemical; settings: Y641F mutant PRC2 enzyme 4 nM, H3K27me2 peptide, 3H-SAM Flashplate
T2 construct: made in house; host or cells: Spodoptera frugiperda (sf9) cells, baculovirus
Text: as §2, §3, §4, §5, §6, §7

T2 sequence (Q15910 whole entry Y641F): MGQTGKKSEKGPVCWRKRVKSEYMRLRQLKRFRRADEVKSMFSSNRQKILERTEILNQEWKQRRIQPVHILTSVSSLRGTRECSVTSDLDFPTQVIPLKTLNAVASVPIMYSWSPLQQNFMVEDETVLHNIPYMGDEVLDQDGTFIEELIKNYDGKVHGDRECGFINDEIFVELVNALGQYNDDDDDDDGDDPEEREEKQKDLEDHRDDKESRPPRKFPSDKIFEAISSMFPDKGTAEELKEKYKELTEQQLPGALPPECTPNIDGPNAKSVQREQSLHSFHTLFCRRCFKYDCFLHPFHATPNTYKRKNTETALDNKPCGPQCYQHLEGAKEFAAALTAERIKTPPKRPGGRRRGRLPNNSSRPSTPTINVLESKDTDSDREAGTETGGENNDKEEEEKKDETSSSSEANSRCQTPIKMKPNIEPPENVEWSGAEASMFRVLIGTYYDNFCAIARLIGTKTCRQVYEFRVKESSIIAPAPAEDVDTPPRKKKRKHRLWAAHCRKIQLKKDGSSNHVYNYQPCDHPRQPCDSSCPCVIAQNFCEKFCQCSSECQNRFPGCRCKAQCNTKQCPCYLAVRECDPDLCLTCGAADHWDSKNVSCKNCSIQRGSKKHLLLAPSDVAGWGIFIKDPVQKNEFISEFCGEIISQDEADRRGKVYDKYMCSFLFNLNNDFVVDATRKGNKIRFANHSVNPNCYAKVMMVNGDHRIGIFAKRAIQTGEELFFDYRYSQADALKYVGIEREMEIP
T2 sequence (O75530 whole entry partner): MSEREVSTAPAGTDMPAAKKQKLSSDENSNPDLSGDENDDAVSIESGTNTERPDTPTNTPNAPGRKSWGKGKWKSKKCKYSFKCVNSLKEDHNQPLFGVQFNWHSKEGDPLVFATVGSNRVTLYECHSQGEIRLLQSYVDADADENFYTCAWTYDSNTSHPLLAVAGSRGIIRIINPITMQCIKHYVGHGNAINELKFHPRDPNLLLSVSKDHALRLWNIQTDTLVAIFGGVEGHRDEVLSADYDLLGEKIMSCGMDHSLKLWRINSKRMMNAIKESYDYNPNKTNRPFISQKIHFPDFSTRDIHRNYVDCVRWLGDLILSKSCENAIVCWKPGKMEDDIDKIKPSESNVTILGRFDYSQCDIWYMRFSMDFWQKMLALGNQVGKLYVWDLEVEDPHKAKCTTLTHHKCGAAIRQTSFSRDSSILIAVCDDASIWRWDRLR
T2 sequence (Q15022 whole entry partner): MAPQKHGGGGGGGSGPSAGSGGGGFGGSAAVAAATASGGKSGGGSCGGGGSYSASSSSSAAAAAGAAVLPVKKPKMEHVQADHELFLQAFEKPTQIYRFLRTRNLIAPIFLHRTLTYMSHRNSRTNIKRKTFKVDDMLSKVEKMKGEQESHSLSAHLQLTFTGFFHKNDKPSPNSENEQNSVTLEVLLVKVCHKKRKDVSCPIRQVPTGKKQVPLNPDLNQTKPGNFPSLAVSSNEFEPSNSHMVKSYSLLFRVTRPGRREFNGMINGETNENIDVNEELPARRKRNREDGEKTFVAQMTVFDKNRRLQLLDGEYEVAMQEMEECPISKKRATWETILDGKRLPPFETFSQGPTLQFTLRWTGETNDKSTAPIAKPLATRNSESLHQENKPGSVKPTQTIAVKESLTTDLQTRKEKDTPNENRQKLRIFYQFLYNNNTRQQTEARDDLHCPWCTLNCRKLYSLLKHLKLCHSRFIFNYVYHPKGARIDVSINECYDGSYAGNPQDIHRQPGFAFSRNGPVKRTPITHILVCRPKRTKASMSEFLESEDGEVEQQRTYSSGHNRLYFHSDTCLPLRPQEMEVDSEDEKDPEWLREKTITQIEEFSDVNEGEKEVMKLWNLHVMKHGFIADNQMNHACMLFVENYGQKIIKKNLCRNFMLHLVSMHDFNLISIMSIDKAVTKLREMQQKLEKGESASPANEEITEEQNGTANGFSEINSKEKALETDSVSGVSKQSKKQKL
T2 sequence (Q09028 whole entry partner): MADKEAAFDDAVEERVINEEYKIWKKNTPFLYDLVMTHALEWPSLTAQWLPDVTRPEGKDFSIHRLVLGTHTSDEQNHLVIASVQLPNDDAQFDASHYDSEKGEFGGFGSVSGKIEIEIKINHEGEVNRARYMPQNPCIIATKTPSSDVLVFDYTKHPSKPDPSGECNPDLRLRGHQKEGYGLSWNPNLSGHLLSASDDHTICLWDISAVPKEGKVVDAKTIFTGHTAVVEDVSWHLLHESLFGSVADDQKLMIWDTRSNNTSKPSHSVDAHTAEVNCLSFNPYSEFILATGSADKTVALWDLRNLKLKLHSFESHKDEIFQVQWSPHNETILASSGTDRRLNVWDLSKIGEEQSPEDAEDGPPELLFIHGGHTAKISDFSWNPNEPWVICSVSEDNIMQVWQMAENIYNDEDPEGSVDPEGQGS
T1 sequence (Q15910 whole entry): as the sequence (Q15910 whole entry Y641F) above, with F641Y counted along it
T1 sequence (O75530 whole entry partner): as the sequence (O75530 whole entry partner) above
T1 sequence (Q15022 whole entry partner): as the sequence (Q15022 whole entry partner) above
T1 sequence (Q09028 whole entry partner): as the sequence (Q09028 whole entry partner) above

Structure (SMILES) | IC50 [3] | IC50 [4] | IC50 [1] | IC50 [2]
CCN(c1cc(-c2ccc(CN3CCOCC3)cc2)cc(C(=O)NCc2c(C)[nH]c(C)cc2=O)c1C)C1CCOCC1 [Compound 2, N-((2,6-dimethyl-4-oxo-1,4-dihydropyridin-3-yl)methyl)-5-(ethyl(tetrahydro-2H-pyran-4-yl)amino)-4-methyl-4′-(morpholinomethyl)-[1,1′-biphenyl]-3-carboxamide] |  |  | 8040 nM | 19500 nM
CCN(c1cc(-c2ccc(CN3CCOCC3)cc2)cc(C(=O)NCc2c(Cl)[nH]c(C)cc2=O)c1C)C1CCOCC1 [Compound 4, N-((2-chloro-6-methyl-4-oxo-1,4-dihydropyridin-3-yl)methyl)-5-(ethyl(tetrahydro-2H-pyran-4-yl)amino)-4-methyl-4′-(morpholinomethyl)-[1,1′-biphenyl]-3-carboxamide] |  |  | 9070 nM | 6720 nM
CCN(c1cc(-c2ccc(CN3CCOCC3)cc2)cc(C(=O)NCc2c(C)[nH]c(C)cc2=O)c1C)[C@H]1CC[C@H](N(C)C)CC1 [Compound 98] |  |  | 3100 nM | 4400 nM
CCN(c1cc(-c2ccc(OCCOC)cc2)cc(C(=O)NCc2c(Cl)[nH]c(C)cc2=O)c1C)[C@H]1CC[C@H](N(C)CCOC)CC1 [Compound 102] | 150 nM | 93 nM | 10800 nM | 
CCN(c1cc(Cl)cc(C(=O)NCc2c(C)[nH]c(C)cc2=O)c1C)C1CCN(CCOC)CC1 [Compound 103] | 360 nM | 341 nM | 41300 nM | 
CCN(c1cc(Cl)cc(C(=O)NCc2c(Cl)[nH]c(C)cc2=O)c1C)C1CCN(CCOC)CC1 [Compound 104] | 870 nM | 598 nM | 49500 nM | 

The next lines start with results.

IC50 [3] | IC50 [4] | Structure (SMILES) | IC50 [1] | IC50 [2]
17 nM | 12 nM | CCN(c1cc(C#CCN2CCOCC2)cc(C(=O)NCc2c(C)[nH]c(C)cc2=O)c1C)[C@H]1CC[C@H](N(C)C)CC1 [Compound 95] | 11400 nM | 
130 nM | 118 nM | CCN(c1cc(C#CCN2CCOCC2)cc(C(=O)NCc2c(Cl)[nH]c(C)cc2=O)c1C)[C@H]1CC[C@H](N(C)C)CC1 [Compound 96] | 4300 nM | 
5 nM | 8 nM | CCN(c1cc(C#CC2(C)COC2)cc(C(=O)NCc2c(C)[nH]c(C)cc2=O)c1C)[C@H]1CC[C@H](N(C)C)CC1 [Compound 97] | 9200 nM | 
1 nM | 5 nM | CCN(c1cc(Cl)cc(C(=O)NCc2c(C)[nH]c(C)cc2=O)c1C)[C@H]1CC[C@H](N(C)Cc2cccc(OC)c2)CC1 [Compound 99] | 560 nM | 
15 nM | 10 nM | CCN(c1cc(Cl)cc(C(=O)NCc2c(Cl)[nH]c(C)cc2=O)c1C)[C@H]1CC[C@H](N(C)Cc2cccc(OC)c2)CC1 [Compound 101] | 3000 nM | 
